According to US12435091B2, “RNA-binding protein multimerization inhibitors and methods of use thereof” (THE UAB RESEARCH FOUNDATION, priority 2020, dated 2025):

Experiments:
Format in all cases: cell-based
[1] = test system: XD456 neurospheres, HuR mRNA targets; experiment: Illumina global RNA-sequencing of PDGx neurospheres; details: 3 uM, 12 hours, compared to control
Method: (§1) Illumina global RNA-sequencing data were generated by utilizing PDGx neurospheres, which have been treated with a compound as described herein (e.g., SRI-42127, 3 uM) for 12 hours or with vehicle as the control. RNA was isolated by using TRIzol reagent (Invitrogen; Carlsbad, CA). The RNA samples were processed.
(§2) RNA sequencing was performed on PDGx-derived glioma neurospheres representing the different molecular subtypes (classical, neuronal, and mesenchymal) after treatment with vehicle (control) or SRI-42127 (3 uM) for 12 hours. Analysis of direct HuR mRNA targets and their corresponding cell signaling pathways was performed. Table 9 illustrates the evaluated gene sets, representing direct HuR mRNA targets, and their corresponding cell signaling pathways.
(§3) The analysis of direct HuR mRNA targets and their corresponding cell signaling pathways has been performed by using gene sets, which have been defined as the direct HuR targets following tumor neurosphere treatment with DHTS, an established modulator of HuR/mRNA interaction (Lal et al., Nucleic Acid Research, 2017). […] Data are represented as average+standard deviation (Aver+SD). The significance was evaluated by using Student t-test.
(§4) The analysis was generated based on RNA-Seq data.

[2] = test system: JX12p neurospheres, HuR mRNA targets; experiment: as above; details: 3 uM, 12 hours, compared to control
Method: as §1, §2, §3, §4

[3] = test system: X14P neurospheres, HuR mRNA targets; experiment: as above; details: 3 uM, 12 hours, compared to control
Method: as §1, §2, §3, §4

[4] = test system: PDGx XD456 glioma cell line; experiment: cell cycle analysis (propidium iodide, flow cytometry); details: XD456, 10 uM for 18 hours
Method: (§5) Cell cycle distribution was evaluated using a standard staining procedure with propidium iodide (PI) (Sigma-Aldrich; St. Louis, MO) followed by flow cytometry. For cell cycle analysis, cells were plated at low density and synchronized by starvation in serum-free media for 48 hours, then treated with drug or vehicle (control) for 18 hours in normal media with 10% serum. Next, cells were collected, washed, and resuspended in ice-cold phosphate buffered saline (PBS). Cells were fixed under gentle vortexing by dropwise addition of a 10×volume of ice-cold 80% ethanol (−20° C.) on ice. Subsequently, samples were stored at −20° C. for at least 18 hours until data acquisition. Before cell cycle analysis, cells were washed in PBS and treated with RNase A (200 μg/mL, in PBS) and PI (20 μg/mL) for 45 minutes at 23° C. Acquisition of at least 10000 events per sample was performed in UAB Flow Cytometry Facility. Data were analyzed by FlowJo v10 software (Becton, Dickinson and Company; Franklin Lakes, NJ).
(§6) HuR is one of the key regulators of cell cycle progression in cancer cells, particularly high-grade glioma; therefore, the arrest of cell cycle progression by the newly identified compounds supports HuR-targeted inhibition. FIG. 5B illustrates representative histograms of cell cycle progression in the established U251, LN229, and the PDGx XD456 glioma cell lines in the control (treatment with vehicles) and after treatment with SRI-42127. The bar graph represents the average numbers of cells in each phase of the cell cycle after treatment with the SRI-42127 normalized to the corresponding control values (vehicle treatment). There was a significant accumulation of cells in the G1 phase and a reduction of cells in the S phase after treatment with SRI-42127, 10 uM for 18 hours. […] The average reductions of cells in the S phase were 65±4% (n=3), 60±3% (n=3), and 70±3% (n=3) in U251, LN229, and XD456 cell lines, respectively, after treatment with SRI-42127 compared to the control.

LN229 glioma cell line = experiment: as above; details: LN229, 10 uM for 18 hours
Method: as §5, §6

U251 glioma cell line = experiment: as above; details: U251, 10 uM for 18 hours
Method: as §5, §6

In the case of `CN(c1ccc2ncc(-c3ccc4cn[nH]c4c3)n2n1)C1CCOCC1` [Compound 19], the “gene set average value, Activation of BH3-only proteins Homo sapiens_R-HSA-114452” value (from here on “gene set average value, Activation”) [1] is reported as 0.94, the “gene set average value, Cell Cycle Check points_Homo Sapiens_R-HSA-69620” value [1] is reported as 0.48 and the “gene set average value, Cell Cycle, Mitotic_Homo Sapiens_R-HSA-69278” value [1] is reported as 0.54. For the same compound, the “gene set average value, Cell Cycle_Homo sapiens_R-HSA-1640170” value [1] was 0.52, the “gene set average value, Cell cycle_Homo Sapiens_hsa04110” value [1] was 0.60 and the “gene set average value, Cellular Senescence_Homo sapiens_R-HSA-2559583” value [1] was 0.64. The “gene set average value, Cellular responses to Stress_Homo sapiens_R-HSA-2262752” value [1] was 0.53, the “gene set average value, Deadenylation-dependent mRNA decay_Homo sapiens_R-HSA-429914” value [1] was 0.58 and the “gene set average value, Developmental Biology_Homo sapiens_R-HSA-1266738” value [1] was 0.49. The “gene set average value, Epstein-Barr virus Infection_Homo Sapiens_hsa05169” value [1] was 0.49, the “gene set average value, G2/M Check points_Homo sapiens_R-HSA-69481” value [1] was 0.47 and the “gene set average value, G2/M DNA damage Checkpoint_Homo sapiens_R-HSA-69473” value [1] was 0.50. For the same compound, the “gene set average value, Gene Expression_Homo Sapiens_R-HSA-2559583” value [1] was 0.63, the “gene set average value, HTLV-1 infection_Homo Sapiens_hsa05186” value [1] was 0.61 and the “gene set average value, Intrinsic Pathway for Apoptosis_Homo sapiens_R-HSA-109606” value [1] was 0.94. For the same compound, the “gene set average value, MAPK signaling Pathway_Homo Sapiens_hsa04010” value [1] was 0.54, the “gene set average value, Membrane Trafficking_Homo sapiens_R-HAS-199991” value [1] was 0.53 and the “gene set average value, Mitotic G1-G1/S phases_Homo sapiens_R-HSA-453279” value [1] was 0.61. For the same compound, the “gene set average value, P53 signaling pathway_Homo Sapiens_hsa04115” value [1] was 1.19, the “gene set average value, RHO GTPases Activate Formins_Homo sapiens_R-HSA-5663220” value [1] was 0.48 and the “gene set average value, RHO GTPases Effectors_Homo sapiens_R-HSA-195258” value [1] was 0.50. The “gene set average value, RNA degradation_Homo Sapiens_hsa03018” value [1] was 0.65, the “gene set average value, Regulation of TP53 Activity through Phosphorylation_Homo sapiens_R-HSA-6804756” value [1] was 0.35 and the “gene set average value, Regulation of TP53 Activity_Homo sapiens_” value [1] was 0.44. The “gene set average value, Signaling by Rho GTPases_Homo sapiens_R-HSA-194315” value (“gene set average value, Signaling” for short) [1] was 0.45, the “gene set average value, TP53 Regulates Metabolic Genes_Homo sapiens_R-HSA-5628897” value [1] was 0.54 and the “gene set average value, Transcriptional Regulation by TP53_Homo sapiens_R-HSA-3700989” value [1] was 0.64. For the same compound, the “gene set average value, Translocation of GLUT4 to the plasma membrane_Homo sapiens_R-HSA-1445148” value (“gene set average value, Translocation” below) [1] was 0.53, the “gene set average value, Activation” value [2] was 0.90 and the “gene set average value, Cell Cycle Check points_Homo Sapiens_R-HSA-69620” value [2] was 0.58. For the same compound, the “gene set average value, Cell Cycle, Mitotic_Homo Sapiens_R-HSA-69278” value [2] was 0.58, the “gene set average value, Cell Cycle_Homo sapiens_R-HSA-1640170” value [2] was 0.57 and the “gene set average value, Cell cycle_Homo Sapiens_hsa04110” value [2] was 0.64. For the same compound, the “gene set average value, Cellular Senescence_Homo sapiens_R-HSA-2559583” value [2] was 0.74, the “gene set average value, Cellular responses to Stress_Homo sapiens_R-HSA-2262752” value [2] was 0.61 and the “gene set average value, Deadenylation-dependent mRNA decay_Homo sapiens_R-HSA-429914” value [2] was 0.71. For the same compound, the “gene set average value, Developmental Biology_Homo sapiens_R-HSA-1266738” value [2] was 0.52, the “gene set average value, Epstein-Barr virus Infection_Homo Sapiens_hsa05169” value [2] was 0.63 and the “gene set average value, G2/M Check points_Homo sapiens_R-HSA-69481” value [2] was 0.60. For the same compound, the “gene set average value, G2/M DNA damage Checkpoint_Homo sapiens_R-HSA-69473” value [2] was 0.61, the “gene set average value, Gene Expression_Homo Sapiens_R-HSA-2559583” value [2] was 0.78 and the “gene set average value, HTLV-1 infection_Homo Sapiens_hsa05186” value [2] was 0.67. The “gene set average value, Intrinsic Pathway for Apoptosis_Homo sapiens_R-HSA-109606” value [2] was 0.90, the “gene set average value, MAPK signaling Pathway_Homo Sapiens_hsa04010” value [2] was 0.63 and the “gene set average value, Membrane Trafficking_Homo sapiens_R-HAS-199991” value [2] was 0.62. The “gene set average value, Mitotic G1-G1/S phases_Homo sapiens_R-HSA-453279” value [2] was 0.58, the “gene set average value, P53 signaling pathway_Homo Sapiens_hsa04115” value [2] was 1.21 and the “gene set average value, RHO GTPases Activate Formins_Homo sapiens_R-HSA-5663220” value [2] was 0.48. For the same compound, the “gene set average value, RHO GTPases Effectors_Homo sapiens_R-HSA-195258” value [2] was 0.50, the “gene set average value, RNA degradation_Homo Sapiens_hsa03018” value [2] was 0.78 and the “gene set average value, Regulation of TP53 Activity through Phosphorylation_Homo sapiens_R-HSA-6804756” value [2] was 0.63. The “gene set average value, Regulation of TP53 Activity_Homo sapiens_R-HSA-109606” value [2] was 0.89, the “gene set average value, Signaling” value [2] was 0.49 and the “gene set average value, TP53 Regulates Metabolic Genes_Homo sapiens_R-HSA-5628897” value [2] was 0.87. For the same compound, the “gene set average value, Transcriptional Regulation by TP53_Homo sapiens_R-HSA-3700989” value [2] was 0.93, the “gene set average value, Translocation” value [2] was 0.71 and the “gene set average value, Activation” value [3] was 1.03. The “gene set average value, Cell Cycle Check points_Homo Sapiens_R-HSA-69620” value [3] was 0.77, the “gene set average value, Cell Cycle, Mitotic_Homo Sapiens_R-HSA-69278” value [3] was 0.80 and the “gene set average value, Cell Cycle_Homo sapiens_R-HSA-1640170” value [3] was 0.74. For the same compound, the “gene set average value, Cell cycle_Homo Sapiens_hsa04110” value [3] was 0.99, the “gene set average value, Cellular Senescence_Homo sapiens_R-HSA-2559583” value [3] was 0.99 and the “gene set average value, Cellular responses to Stress_Homo sapiens_R-HSA-2262752” value [3] was 0.74. The “gene set average value, Deadenylation-dependent mRNA decay_Homo sapiens_R-HSA-429914” value [3] was 1.03, the “gene set average value, Developmental Biology_Homo sapiens_R-HSA-1266738” value [3] was 0.65 and the “gene set average value, Epstein-Barr virus Infection_Homo Sapiens_hsa05169” value [3] was 1.0. For the same compound, the “gene set average value, G2/M Check points_Homo sapiens_R-HSA-69481” value [3] was 0.82, the “gene set average value, G2/M DNA damage Checkpoint_Homo sapiens_R-HSA-69473” value [3] was 0.82 and the “gene set average value, Gene Expression_Homo Sapiens_R-HSA-2559583” value [3] was 0.95. The “gene set average value, HTLV-1 infection_Homo Sapiens_hsa05186” value [3] was 0.89, the “gene set average value, Intrinsic Pathway for Apoptosis_Homo sapiens_R-HSA-109606” value [3] was 1.03 and the “gene set average value, MAPK signaling Pathway_Homo Sapiens_hsa04010” value [3] was 1.0. For the same compound, the “gene set average value, Membrane Trafficking_Homo sapiens_R-HAS-199991” value [3] was 0.86, the “gene set average value, Mitotic G1-G1/S phases_Homo sapiens_R-HSA-453279” value [3] was 1.00 and the “gene set average value, P53 signaling pathway_Homo Sapiens_hsa04115” value [3] was 1.9. For the same compound, the “gene set average value, RHO GTPases Activate Formins_Homo sapiens_R-HSA-5663220” value [3] was 0.62, the “gene set average value, RHO GTPases Effectors_Homo sapiens_R-HSA-195258” value [3] was 0.70 and the “gene set average value, RNA degradation_Homo Sapiens_hsa03018” value [3] was 1.97. The “gene set average value, Regulation of TP53 Activity through Phosphorylation_Homo sapiens_R-HSA-6804756” value [3] was 0.58, the “gene set average value, Regulation of TP53 Activity_Homo sapiens_R-HSA-109606” value [3] was 0.94 and the “gene set average value, Signaling” value [3] was 0.65. The “gene set average value, TP53 Regulates Metabolic Genes_Homo sapiens_R-HSA-5628897” value [3] was 1.03, the “gene set average value, Transcriptional Regulation by TP53_Homo sapiens_R-HSA-3700989” value [3] was 1.04 and the “gene set average value, Translocation” value [3] was 0.92. For the same compound, the “increase of cells in the G1 phase compared to the control” value (shortened to “increase of cells in the G1 phase”) [4] was 210±40%, the “reduction of cells in the S phase compared to the control” value (shortened to “reduction of cells in the S phase”) [4] was 70±3% and the “increase of cells in the G1 phase” value (LN229 glioma cell line) was 56±28%. For the same compound, the “reduction of cells in the S phase” value (LN229 glioma cell line) was 60±3%, the “increase of cells in the G1 phase” value (U251 glioma cell line) was 97±33% and the “reduction of cells in the S phase” value (U251 glioma cell line) was 65±4%.
